According to patent publication US8987207B2, “Peptides which have analgesic effects and which inhibit ASIC channels” (Centre National de la Recherche Scientifique—CNRS, priority 2010, dated 2015):
Bridges are numbered along the chain shown (N, C = ends). Where no end group is shown, it is not given here.

Key:
[1] = target: T1, rat heteromeric ASIC1a+ASIC3 channels (Rattus norvegicus, UniProt O35240+P55926); conditions: read-out: concentration inhibiting 50% of the current produced by rat heteromeric ASIC1a+ASIC3 channels; cited from earlier work
T1 sequence (P55926 1-526): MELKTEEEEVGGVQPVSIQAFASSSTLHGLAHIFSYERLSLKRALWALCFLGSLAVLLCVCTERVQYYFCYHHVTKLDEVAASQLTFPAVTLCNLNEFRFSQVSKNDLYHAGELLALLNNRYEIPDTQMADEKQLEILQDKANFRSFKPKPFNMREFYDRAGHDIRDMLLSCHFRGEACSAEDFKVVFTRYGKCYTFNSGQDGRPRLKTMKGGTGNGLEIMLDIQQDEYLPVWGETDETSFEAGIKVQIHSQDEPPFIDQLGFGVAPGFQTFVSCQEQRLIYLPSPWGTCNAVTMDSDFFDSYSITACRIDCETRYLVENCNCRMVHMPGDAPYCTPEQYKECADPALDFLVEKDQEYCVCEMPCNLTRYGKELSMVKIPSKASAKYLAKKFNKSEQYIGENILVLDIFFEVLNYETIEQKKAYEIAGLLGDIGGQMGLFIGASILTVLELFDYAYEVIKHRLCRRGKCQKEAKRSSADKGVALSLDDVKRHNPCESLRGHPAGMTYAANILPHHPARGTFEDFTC
T1 sequence (O35240 1-533): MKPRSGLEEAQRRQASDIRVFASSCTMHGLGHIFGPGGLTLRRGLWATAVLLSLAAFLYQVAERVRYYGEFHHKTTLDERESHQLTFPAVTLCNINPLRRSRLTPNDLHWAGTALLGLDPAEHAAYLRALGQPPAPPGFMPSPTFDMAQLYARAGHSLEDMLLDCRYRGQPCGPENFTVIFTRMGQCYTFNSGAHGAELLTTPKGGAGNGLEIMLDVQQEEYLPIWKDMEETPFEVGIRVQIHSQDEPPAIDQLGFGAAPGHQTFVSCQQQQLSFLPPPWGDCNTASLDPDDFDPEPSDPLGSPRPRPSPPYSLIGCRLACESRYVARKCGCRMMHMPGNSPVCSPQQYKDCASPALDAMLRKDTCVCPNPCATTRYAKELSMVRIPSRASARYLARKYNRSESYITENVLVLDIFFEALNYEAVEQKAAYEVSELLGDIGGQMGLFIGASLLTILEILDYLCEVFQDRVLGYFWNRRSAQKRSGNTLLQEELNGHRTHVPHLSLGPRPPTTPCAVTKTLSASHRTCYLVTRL

[2] = rats, cited from earlier work
[3] = Toxicity after intrathecal injection; format: in vivo; conditions: mice
[4] = Toxicity after intracerebroventricular injection; format: in vivo; conditions: mice, ICV injection, even after 3 days
Protocol: The intracerebroventricular (ICV) injection of the ASICalgin-1 peptide was carried out in the third ventricle of the brain of mice (C57B16J, 7- to 11-week-old males) anesthetized with isoflurane (1.5%) using the following stereotaxic coordinates: −2.4 mm under the cortical surface, −0.5 mm in the anterior-posterior axis and +1.6 mm in the mediolateral axis relative to the bregma. The effects of an ICV injection of 5 μl of solution containing […] of ASICalgin-1 (0.34 nmol) were compared with the effects of 5 μl of saline solution vehicle (145 mM NaCl, 5 mM KCl, 2 mM CaCl2, 10 mM HEPES, pH 7.4, 0.05% bovine serum albumin) naxolone, an inhibitor of opioid receptors (especially μ-type), was injected subcutaneously at 2 mg/kg in 50 μl of 0.9% NaCl, ten minutes before the ICV injection of the ASICalgin-1 peptide.

[5] = Accelerating rotarod test (motor activity) after intrathecal injection; format: in vivo; conditions: mice, IT injection, compared with vehicle, ANOVA
Protocol: The effects of the ASICalgin-1 peptide on motor activity were evaluated by means of the accelerating rotarod test. The mice were placed on an axle rotating at four rotations per minute (rpm) which undergoes a constant acceleration of 5 rpm per minute up to 40 rpm. The latency to fall is measured, with a maximum limit of 300 s.

[6] = target: T2, homomeric ASIC1a channels (Homo sapiens, UniProt P78348); conditions: read-out: concentration inhibiting 50% of the current produced by homomeric ASIC1a channels; cited from earlier work
T2 sequence (P78348 1-528): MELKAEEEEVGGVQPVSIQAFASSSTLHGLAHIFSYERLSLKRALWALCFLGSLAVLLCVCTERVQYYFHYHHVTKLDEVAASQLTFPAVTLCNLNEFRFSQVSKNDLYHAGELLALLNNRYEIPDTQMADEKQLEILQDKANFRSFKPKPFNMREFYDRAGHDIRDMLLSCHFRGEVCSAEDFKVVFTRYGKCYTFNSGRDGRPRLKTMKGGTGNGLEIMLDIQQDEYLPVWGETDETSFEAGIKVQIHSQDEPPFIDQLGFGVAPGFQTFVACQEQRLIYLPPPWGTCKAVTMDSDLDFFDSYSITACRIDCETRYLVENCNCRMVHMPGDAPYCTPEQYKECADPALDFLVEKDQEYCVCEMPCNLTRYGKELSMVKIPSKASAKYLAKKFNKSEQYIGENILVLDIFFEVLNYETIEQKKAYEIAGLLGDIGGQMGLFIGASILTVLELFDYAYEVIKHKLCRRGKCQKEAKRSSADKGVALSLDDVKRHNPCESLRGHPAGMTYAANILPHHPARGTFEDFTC

[7] = mice, central injection; cited from earlier work

APETx2
IC50 [1]: 2000 nM
analgesic effect on post-operative pain ([2]; intra-operative application): induces an analgesic effect
analgesic effect on inflammatory and acidic pain ([2]; peripheral (subcutaneous) injection): induces an analgesic effect

LKCFQHGKVVTCHRDMKFCYHNTGMPFRNLKLILQGCSSSCSETENNKCCSTDRCNK (disulfide 3-19, 12-37, 41-49, 50-55) [ASICalgin-2]
toxicity: behavior (motor, balance, apathy, paralysis, convulsion), deaths [3]: induces no modification of behavior

LKCYQHGKVVTCHRDMKFCYHNTGMPFRNLKLILQGCSSSCSETENNKCCSTDRCNK (disulfide 3-19, 12-37, 41-49, 50-55) [ASICalgin-1]
toxicity: behavior (motor, balance, apathy, paralysis, convulsion), deaths [4]: induces no modification of behavior
toxicity: behavior (motor, balance, apathy, paralysis, convulsion), deaths [3]: induces no modification of behavior
effect on motor activity, latency to fall [5]: does not induce any significant effect

PcTx1
IC50 [6]: 1 nM
analgesic effect [7]: powerful analgesic effect
